Common to all, as to assay: DTP human tumour cell line panel, 48 h
Experiment [1] has as its system NCI-H226 lung.
Experiment [2] concerns LOX IMVI melanoma.
The subject of experiment [3] is OVCAR-4 ovarian.
Experiment [4] has as its system HCT-15 colon.
Experiment [5] relates to UACC-257 melanoma.
Experiment [6] relates to MOLT-4 leukemia.
Experiment [7] concerns KM12 colon.
The subject of experiment [8] is M14 melanoma.
Experiment [9] relates to A498 renal.
Experiment [10] relates to SNB-75 CNS.

Experimental findings from PubChem BioAssay (NCI) are described below.

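Briefly, cells in 96-well plates were exposed to five compound concentrations for 48 h, and endpoints were estimated by linear interpolation. GI50 = concentration required for 50% inhibition of growth. TGI is the concentration that stops growth completely.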 A value given as a limit tells only on which side of the number the result lay.

Consider `CC(C)(C)N1CC(OC(N)=O)C1`, for which the GI50 in experiment [1], in experiment [2], in [3], in experiment [4], in experiment [5] and in experiment [6] was above 100 µM each time. The GI50 in [7], in experiment [8], in [9] and in experiment [10] was above 100 µM each time. Besides, the concentration for total growth inhibition (TGI) in experiment [1], in experiment [2], in experiment [3], in [4], in [5] and in [6] was above 100 µM in each case. Moreover, the TGI in [7], in experiment [8], in [9] and in experiment [10] was above 100 µM throughout.
With `CC(=O)Nc1ccc2oc(=O)c3ccccc3c2c1`, the TGI in [1], in experiment [2], in experiment [3], in experiment [4], in [5] and in experiment [6] was above 100 µM throughout. For the same molecule, the TGI in [7], in experiment [8], in experiment [9] and in experiment [10] was above 100 µM in each case.
As to `COc1ccc(-c2nc(N)c3ncn(C4OC(CO)C(O)C4O)c3n2)cc1` (stereo not given), the TGI in experiment [1], in [2], in [3], in [4], in [5] and in experiment [6] was above 100 µM each time. The TGI in experiment [7], in experiment [8], in [9] and in experiment [10] was above 100 µM throughout.
Consider `C[C@]12CC(C#N)C(=O)C(O)=C1CC[C@@H]1C2CC[C@@]2(C)C1CC[C@@H]2O` (stereo not given in full), for which the TGI in experiment [1], in experiment [2], in [3], in [4], in experiment [5] and in [6] was above 100 µM in each case. For the same molecule, the TGI is above 100 µM in [7], above 100 µM in experiment [8], 28.9 µM in experiment [9] and 63.1 µM in experiment [10].
Turning to `COc1cc(C)[nH]c(=O)c1CN1CCc2c(Cl)cc([C@H](OC)C3COC3)c(Cl)c2C1=O`, the GI50 in [1], in experiment [2], in experiment [3], in experiment [4], in experiment [5] and in experiment [6] was above 100 µM each time. For the same molecule, the GI50 in experiment [7], in experiment [8], in experiment [9] and in [10] was above 100 µM throughout. In addition, the TGI in experiment [1], in [2], in experiment [3], in [4], in [5] and in experiment [6] was above 100 µM in each case. Also, the TGI in [7], in [8], in experiment [9] and in experiment [10] was above 100 µM throughout.
For `COc1cccc(-c2nc(-c3ccc(NC(=O)c4ccccc4)cc3)[nH]c2-c2ccnc(Br)c2)c1`, the GI50 was 2.95 µM in experiment [1]; 1.13 µM in experiment [2]; 4.9 µM in experiment [3]; 0.78 µM in experiment [4]; 5.34 µM in [5]; 2.7 µM in [6]. Further, the GI50 in [7] was 2.29 µM; in [8], 2.91 µM; in [9] it was 1.74 µM; in [10], 0.815 µM. Besides, the TGI is above 100 µM in [1]; 2.69 µM in experiment [2]; above 100 µM in [3]; 3.28 µM in experiment [4]; above 100 µM in experiment [5]; above 100 µM in [6]. For the same molecule, the TGI in experiment [7] was above 100 µM; in experiment [8], above 100 µM; in experiment [9], 6.5 µM; in experiment [10], above 100 µM.
Take `NC1=NC(c2ccccc2)CC(c2cc(Cl)cc(Br)c2O)=N1` (stereo not given): the TGI in experiment [1] was 34.3 µM; in experiment [2] it was 27.7 µM; in experiment [3], 41.9 µM; in [4] it was 31.1 µM; in [5], 36.2 µM; in experiment [6], 11.6 µM. The TGI in experiment [7] was 26.1 µM; in experiment [8], 28.7 µM; in experiment [9], 35.7 µM; in [10], 28.3 µM.
For the molecule `COc1ccccc1N1CCN(C(=O)c2ccc(NS(=O)(=O)c3cccc4cccnc34)cc2)CC1`, the GI50 in [1] is above 33.2 µM; in experiment [2] it was above 100 µM; in experiment [3], above 100 µM; in experiment [4], above 100 µM; in experiment [5], above 100 µM; in [6] it was above 100 µM. Further, the GI50 in experiment [7] was above 100 µM; in experiment [8], above 100 µM; in [9], above 47.6 µM; in experiment [10], 10.1 µM. The TGI in experiment [1], in experiment [2], in [3], in [4], in [5] and in experiment [6] was above 100 µM throughout. Further, the TGI in experiment [7] was above 100 µM; in [8], above 100 µM; in experiment [9], above 100 µM; in [10], above 53.7 µM.
As for `O=C(c1cc2c(C(F)(F)F)onc2c2ccccc12)C(F)(F)F`, the TGI in experiment [1] was 13.5 µM; in experiment [2], 18.3 µM; in experiment [3], above 100 µM; in experiment [4], above 29 µM; in [5], 47.5 µM; in experiment [6], above 56 µM. The TGI in experiment [7] was 52.9 µM; in experiment [8] it was above 58.6 µM; in experiment [9], 34.9 µM; in experiment [10], 15.4 µM.

The term GI50 denotes the concentration that inhibits growth by half. Broadly, the TGI is the concentration giving total growth inhibition. The low end stands for more potent growth arrest, the high end for less potent growth arrest.
